Data on 2 molecules can be found in US5084082A, “Soybean plants with dominant selectable trait for herbicide resistance” (priority 1990, dated 1992).

Common to all, as to type: in vivo, soybean
Experiment [1] has as its system mutant line W20. Briefly: Test B postemergence cross resistance test. Particulars: Glycine max, post-emergence. In short, it runs like this: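 Soybean mutant lines and Williams 82 sprayed postemergence at the second trifoliolate stage with ALS inhibitors (sulfonylureas, imidazolinones), each at two rates. Injury rated two to three times per pot over three weeks in the greenhouse and averaged; ANOVA per herbicide, Fisher's LSD at 95%.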

In experiment [2] the test system is mutant line W17. Briefly: Test B postemergence cross resistance test. As to conditions: Glycine max, post-emergence; for soybean crop injury (%) at 2 g/ha: W17, 2 g/ha postemergence. In short, it runs like this:
(§1)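 Soybean resistant mutant lines and Williams 82 sprayed postemergence at second trifoliolate stage with 11 ALS inhibitors (eight sulfonylureas, three imidazolinones), each at two rates. Injury rated two to three times per pot over three weeks and averaged; line means compared by ANOVA and Fisher's LSD at 95% confidence.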

Experiment [3] has as its system mutant line W4. Briefly: Test B postemergence cross resistance test. As to conditions: Glycine max, post-emergence; for % crop injury at 2 g/ha: W4, 2 g/ha postemergence. Put shortly: as §1
The subject of experiment [4] is mutant line W19. Briefly: Test B postemergence cross resistance test. As to conditions: Glycine max, post-emergence; for percent soybean crop injury at 2 g/ha: W19, 2 g/ha postemergence. Put shortly:
as §1

The test system of experiment [5] is mutant line W23. Briefly: Test B postemergence cross resistance test. As to conditions: Glycine max, post-emergence. In short, it runs like this:
as §1

In experiment [6] the test system is Williams 82. Put plainly: Test B postemergence cross resistance test. As to conditions: Glycine max, post-emergence; for soybean crop injury at 2 g/ha: Wm 82, 2 g/ha postemergence. In short, it runs like this: as §1
Experiment [7] deals with mutant line W28. Put plainly: Test B postemergence cross resistance test. Particulars: Glycine max, post-emergence; for mean % injury to soybean at 2 g/ha: W28, 2 g/ha postemergence. Put shortly: as §1
Experiment [8] relates to mutant W20. Put plainly: Test A postemergence herbicide spray, greenhouse pots. The text has this: (§2) In the first post-emergence test, two true-breeding resistant mutant lines, W19 and W20, were compared to previously isolated tolerant mutants and wild-type Williams 82. Eighteen pots (20 cm diameter) of each soybean line (2 seeds per pot) were planted using a standard sterile potting mix. When the seedlings reached the second trifoliolate stage, plants were thinned back to one plant per pot. Each pot was then sprayed with a specific herbicide treatment using a conveyor belt spray apparatus to emulate field application. The nine different herbicide treatments included one rate (8 g/ha) of Compound 1 and two rates (8 and 32 g/ha) each of four other sulfonylurea herbicides (Compounds 2,3,7 and 8) (see Table VI) using a factorial treatment design with 2 replications.
(§3) In both postemergence tests, plants were returned to the greenhouse after treatment and provided with ample light, moisture, and nutrients to support healthy plant growth. Two to three ratings per pot were recorded over a three-week period and averaged to obtain a single value for each pot For each herbicide, analysis of variance on injury ratings was performed separately. Fisher's least significant difference (LSD) was used to determine the significance of line mean differences at each herbicide rate using the 95% level of confidence. […]

The test system of experiment [9] is Mutant 1-184A. The experiment is described as above.
Source text: as §2, §3

For experiment [10], the system named is Williams 82. Described as above.
Source text: as §2, §3

The subject of experiment [11] is mutant W19. The experiment is described as above.
Source text: as §2, §3

For experiment [12], the system named is Williams-NMU-1 M2 seedlings. Put plainly: Hydroponic selection of M2 seeds with Compound 1. As to conditions: 100 ppb. How it is done: Four Modified Hydropot Solo units were prepared as described in the Detailed Description by filling the planting tanks with a 5 cm layer of pea gravel followed by a 10 cm layer of fine vermiculite. M2 seeds of the William-NMU-1 were densely planted (approx. 16,600 seeds per square meter) by placing the seeds in a single horizontal layer on top of the vermiculite and then covering the seeds with a second level 2.5 cm layer of vermiculite. The nutrient solution reservoir was filled with tap water supplemented with 100 ppb of Compound 1 as the selective agent. Plant tanks were irrigated with the Compound 1 solution for four 30 minute periods per day beginning at 12 midnight, 8 AM, 12 noon, and 4 pm. […] The W20 plant was gently removed from the from the hydroponic planting tank and transplanted into a 20 cm pot containing a standard peat-based potting mixture. […] This observation led the applicant to believe that W20 represented a new class of resistant mutants. W20 was allowed to reach maturity under greenhouse conditions and produce an M3 line that was also referred to as W20.
M2 seeds of the Williams-NMU-1 treatment (Table II) were densely planted (approximately 16,600 seeds Per m2) on top of a level 7 cm layer of granular vermiculite supported by the upper chamber of the planting tank of the previously described large hydroponic selection system. […]

In the case of `COc1nc(C)nc(NC(=O)NS(=O)(=O)c2ccccc2Cl)n1` [Compound 1, 2-chloro-N-[[(4-methoxy-6-methyl-1,3,5-triazin-2-yl)amino]carbonyl]benzenesulfonamide], the percent crop injury at 8 g/ha in experiment [1] (W20, 8 g/ha postemergence) is 0%. The molecule further showed a soybean crop injury (%) at 2 g/ha in experiment [2] of 0%. Besides, in experiment [2] (W17, 8 g/ha postemergence), the soybean crop injury (%) at 8 g/ha is 0%. Also, in experiment [3], the % crop injury at 2 g/ha was found to be 0%. The % crop injury at 8 g/ha in experiment [3] (W4, 8 g/ha postemergence) was 0%. This molecule returned a percent soybean crop injury at 2 g/ha in experiment [4] of 0%. Moreover, the percent soybean crop injury at 8 g/ha in experiment [4] (W19, 8 g/ha postemergence) was determined as 13%. In [5] (W23, 8 g/ha postemergence), this molecule gave a percent soybean injury at 8 g/ha of 0%. This molecule also yielded a soybean crop injury at 2 g/ha in [6] of 98%. In [6] (Wm 82, 8 g/ha postemergence), this molecule came in with a soybean crop injury at 8 g/ha of 100%. In [7], this molecule returned a mean % injury to soybean at 2 g/ha of 0%. Moreover, the mean % injury to soybean at 8 g/ha in [7] (W28, 8 g/ha postemergence) amounted to 0%. Moreover, the mean % injury in experiment [8] (W20, 8 g/ha postemergence) was found to be 13%; in experiment [9] (8 g/ha postemergence), 97%; in [10] (WM 82, 8 g/ha postemergence), 97%; in experiment [11] (W19, 8 g/ha postemergence), 12%. For the same molecule, in experiment [12] (Modified Hydropot Solo units, twelve days after planting), the “effect on surrounding seedlings” value is recorded as “lethal to the surrounding seedlings”. For the same molecule, in experiment [12] (large hydroponic unit, 8 days after planting), the “effect on background of wild type seedlings” value is “uniformly inhibited”.
Molecule `COC(=O)c1cccnc1S(=O)(=O)NC(=O)Nc1nc(OC)cc(OC)n1` [Compound 8, Methyl 2-[[[[(4,6-dimethoxy-2-pyrimidinyl)amino]carbonyl]amino]sulfonyl]-3-pyridinecarboxylate] gave a percent crop injury at 0.5 g/ha in experiment [1] (W20, 0.5 g/ha postemergence) of 19%. The same molecule registered a percent crop injury at 2 g/ha in experiment [1] (W20, 2 g/ha postemergence) of 89%. For the same molecule, in experiment [2] (W17, 0.5 g/ha postemergence), the soybean crop injury (%) at 0.5 g/ha turned out to be 26%. The molecule also had a soybean crop injury (%) at 2 g/ha in experiment [2] of 83%. The molecule also had a % crop injury at 0.5 g/ha in experiment [3] (W4, 0.5 g/ha postemergence) of 39%. This molecule showed a % crop injury at 2 g/ha in experiment [3] of 81%. In experiment [4] (W19, 0.5 g/ha postemergence), this molecule gave a percent soybean crop injury at 0.5 g/ha of 29%. Further, in [4], the percent soybean crop injury at 2 g/ha worked out at 85%. This molecule showed a percent soybean injury at 0.5 g/ha in experiment [5] (W23, 0.5 g/ha postemergence) of 21%. In addition, in [5] (W23, 2 g/ha postemergence), the percent soybean injury at 2 g/ha turned out to be 70%. The soybean crop injury at 0.5 g/ha in experiment [6] (Wm 82, 0.5 g/ha postemergence) turned out to be 93%. In addition, the soybean crop injury at 2 g/ha in experiment [6] is 98%. Moreover, the mean % injury to soybean at 0.5 g/ha in experiment [7] (W28, 0.5 g/ha postemergence) was 53%. The same molecule gave a mean % injury to soybean at 2 g/ha in experiment [7] of 84%. In addition, the mean % injury in experiment [8] (W20, 8 g/ha postemergence) was 93%; in experiment [8] (W20, 32 g/ha postemergence), 97%; in experiment [9] (8 g/ha postemergence), 93%; in [9] (32 g/ha postemergence), 92%; in experiment [10] (WM 82, 8 g/ha postemergence) it was 95%; in experiment [10] (WM 82, 32 g/ha postemergence) it was 95%. Besides, the mean % injury in [11] (W19, 8 g/ha postemergence) amounted to 84%; in [11] (W19, 32 g/ha postemergence), 95%.
